Experimental data taken from US20260374756A1, “HETEROCYCLIC COMPOUNDS AS INHIBITORS OF MONOACYLGLYCEROL LIPASE (MAGL)” (Hoffmann-La Roche Inc., priority 2022, published 2026).

Biological target: T1, hMAGL (Homo sapiens, UniProt Q99685)
T1 sequence (Q99685 1-303): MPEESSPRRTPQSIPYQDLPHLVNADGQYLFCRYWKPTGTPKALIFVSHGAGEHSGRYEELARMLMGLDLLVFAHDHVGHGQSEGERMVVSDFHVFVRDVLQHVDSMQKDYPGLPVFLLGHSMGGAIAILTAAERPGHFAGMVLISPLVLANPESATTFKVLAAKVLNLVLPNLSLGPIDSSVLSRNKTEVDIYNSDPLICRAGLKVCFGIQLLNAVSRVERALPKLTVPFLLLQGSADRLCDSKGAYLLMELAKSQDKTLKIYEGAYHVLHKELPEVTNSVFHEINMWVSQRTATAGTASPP
Assay: 2-AG assay: MAGL inhibition, hydrolysis of 2-arachidonoylglycerol to arachidonic acid followed by mass spectrometry
Assay type: biochemical
Summary of the method: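 Read-out is LC-MS/MS of arachidonic acid released from 2-arachidonoylglycerol (8 μM final), normalised to d8-arachidonic acid internal standard after acetonitrile quench. Enzyme […] and compound were pre-mixed 15 min, then reacted 30 min, both at RT, in Tris/EDTA buffer with 0.01% Tween-20 and 2.5% DMSO.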

O=C(N1CC2(CC(c3cc(C4CC4)n[nH]3)C2)C1)N1CC2(CN(Cc3nc(C4CC4)ns3)C2)C1 [Example 42, [6-(3-cyclopropyl-1H-pyrazol-5-yl)-2-azaspiro[3.3]heptan-2-yl]-[6-[(3-cyclopropyl-1,2,4-thiadiazol-5-yl)methyl]-2,6-diazaspiro[3.3]heptan-2-yl]methanone]
IC50: 3.85 nM

O=C(N1CC2(CC(n3cnc(C4CC4)n3)C2)C1)N1CC2(CN(Cc3cc(C(F)(F)F)on3)C2)C1 [Example 190, [6-(3-cyclopropyl-1,2,4-triazol-1-yl)-2-azaspiro[3.3]heptan-2-yl]-[6-[[5-(trifluoromethyl)isoxazol-3-yl]methyl]-2,6-diazaspiro[3.3]heptan-2-yl]methanone]
IC50: 7.53 nM

O=C(N1CC2(CC(n3cnc(C4CC4)n3)C2)C1)N1CC2(CN(Cc3nccn3C(F)(F)F)C2)C1 [Example 236, [6-(3-cyclopropyl-1,2,4-triazol-1-yl)-2-azaspiro[3.3]heptan-2-yl]-[6-[[1-(trifluoromethyl)imidazol-2-yl]methyl]-2,6-diazaspiro[3.3]heptan-2-yl]methanone]
IC50: 18.1 nM

Cn1nc(C2CC2)cc1CN1CC2(C1)CN(C(=O)N1CC3(CC(c4cc(C5CC5)n[nH]4)C3)C1)C2 [Example 270, [6-[(5-cyclopropyl-2-methyl-pyrazol-3-yl)methyl]-2,6-diazaspiro[3.3]heptan-2-yl]-[6-(3-cyclopropyl-1H-pyrazol-5-yl)-2-azaspiro[3.3]heptan-2-yl]methanone]
IC50: 4.89 nM

O=C(N1CC2(CC(Cn3cnc(C(F)(F)F)c3)C2)C1)N1CC2(CC(c3cc(C4CC4)n[nH]3)C2)C1 [Example 39, [6-(3-cyclopropyl-1H-pyrazol-5-yl)-2-azaspiro[3.3]heptan-2-yl]-[6-[[4-(trifluoromethyl)imidazol-1-yl]methyl]-2-azaspiro[3.3]heptan-2-yl]methanone]
IC50: 1.56 nM

O=C(N1CC2(CC(Cn3nccc3C3CC3)C2)C1)N1CC2(CC(n3cnc(C4CC4)n3)C2)C1 [Example 355, [6-[(5-cyclopropylpyrazol-1-yl)methyl]-2-azaspiro[3.3]heptan-2-yl]-[6-(3-cyclopropyl-1,2,4-triazol-1-yl)-2-azaspiro[3.3]heptan-2-yl]methanone]
IC50: 0.11 nM

O=C(N1CC2(CC(n3cnc(C4CC4)n3)C2)C1)N1CC2(CN(Cc3sncc3C(F)(F)F)C2)C1 [Example 179, [6-(3-cyclopropyl-1,2,4-triazol-1-yl)-2-azaspiro[3.3]heptan-2-yl]-[6-[[4-(trifluoromethyl)isothiazol-5-yl]methyl]-2,6-diazaspiro[3.3]heptan-2-yl]methanone]
IC50: 2 nM

O=C(N1CC2(CC(n3cnc(C(F)(F)F)n3)C2)C1)N1CC2(CN(Cc3nc(C4CC4)cs3)C2)C1 [Example 239, [6-[(4-cyclopropylthiazol-2-yl)methyl]-2,6-diazaspiro[3.3]heptan-2-yl]-[6-[3-(trifluoromethyl)-1,2,4-triazol-1-yl]-2-azaspiro[3.3]heptan-2-yl]methanone]
IC50: 18.5 nM

Cn1cc(CC2CC3(C2)CN(C(=O)N2CC4(CC(n5cnc(C6(O)CC6)n5)C4)C2)C3)c(C(F)(F)F)n1 [Example 6, [6-[3-(1-hydroxycyclopropyl)-1,2,4-triazol-1-yl]-2-azaspiro[3.3]heptan-2-yl]-[6-[[1-methyl-3-(trifluoromethyl)pyrazol-4-yl]methyl]-2-azaspiro[3.3]heptan-2-yl]methanone]
IC50: 4.93 nM

O=C(N1CC2(CC(n3cnc(C4CC4)n3)C2)C1)N1CC2(CN(Cc3cc(C(F)(F)F)no3)C2)C1 [Example 184, [6-(3-cyclopropyl-1,2,4-triazol-1-yl)-2-azaspiro[3.3]heptan-2-yl]-[6-[[3-(trifluoromethyl)isoxazol-5-yl]methyl]-2,6-diazaspiro[3.3]heptan-2-yl]methanone]
IC50: 6.68 nM

O=C(N1CC2(CC(n3cnc(C(F)(F)F)n3)C2)C1)N1CC2(CN(Cc3conc3C(F)(F)F)C2)C1 [Example 218, [6-[[3-(trifluoromethyl)isoxazol-4-yl]methyl]-2,6-diazaspiro[3.3]heptan-2-yl]-[6-[3-(trifluoromethyl)-1,2,4-triazol-1-yl]-2-azaspiro[3.3]heptan-2-yl]methanone]
IC50: 31.9 nM

O=C(N1CC2(CC(Cc3cc(C(F)(F)F)n[nH]3)C2)C1)N1CC2(CC(n3cnc(C4(O)CC4)n3)C2)C1 [Example 299, [6-[3-(1-hydroxycyclopropyl)-1,2,4-triazol-1-yl]-2-azaspiro[3.3]heptan-2-yl]-[6-[[3-(trifluoromethyl)-1H-pyrazol-5-yl]methyl]-2-azaspiro[3.3]heptan-2-yl]methanone]
IC50: 1.83 nM

O=C(N1CC2(CC(Cc3cn(CC(F)(F)F)nc3C(F)(F)F)C2)C1)N1CC2(CC(n3cnc(C4CC4)n3)C2)C1 [Example 122]
IC50: 0.08 nM

O=C(N1CC2(CC(n3cnc(C4CC4)n3)C2)C1)N1CC2(CN(Cc3nc(C4(C(F)(F)F)CC4)no3)C2)C1 [Example 338, [6-(3-cyclopropyl-1,2,4-triazol-1-yl)-2-azaspiro[3.3]heptan-2-yl]-[6-[[3-[1-(trifluoromethyl)cyclopropyl]-1,2,4-oxadiazol-5-yl]methyl]-2,6-diazaspiro[3.3]heptan-2-yl]methanone]
IC50: 4.03 nM

O=C(N1CC2(CC(n3cnc(C4CC4)n3)C2)C1)N1CC2(CN(Cc3nnn(CC(F)(F)F)n3)C2)C1 [Example 194, [6-(3-cyclopropyl-1,2,4-triazol-1-yl)-2-azaspiro[3.3]heptan-2-yl]-[6-[[2-(2,2,2-trifluoroethyl)tetrazol-5-yl]methyl]-2,6-diazaspiro[3.3]heptan-2-yl]methanone]
IC50: 149 nM

O=C(N1CC2(CC(n3cnc(C4(O)CC4)n3)C2)C1)N1CC2(CN(Cc3cc(C(F)(F)F)sn3)C2)C1 [Example 155, [6-[3-(1-hydroxycyclopropyl)-1,2,4-triazol-1-yl]-2-azaspiro[3.3]heptan-2-yl]-[6-[[5-(trifluoromethyl)isothiazol-3-yl]methyl]-2,6-diazaspiro[3.3]heptan-2-yl]methanone]
IC50: 86.8 nM

O=C(N1CC2(CC(n3cnc(C(F)(F)F)n3)C2)C1)N1CC2(CN(Cc3cc(C(F)(F)F)no3)C2)C1 [Example 183, [6-[[3-(trifluoromethyl)isoxazol-5-yl]methyl]-2,6-diazaspiro[3.3]heptan-2-yl]-[6-[3-(trifluoromethyl)-1,2,4-triazol-1-yl]-2-azaspiro[3.3]heptan-2-yl]methanone]
IC50: 28.4 nM

O=C(N1CC2(CCN(Cc3cc(C(F)(F)F)on3)CC2)C1)N1CC2(CC(n3cnc(C4CC4)n3)C2)C1 [Example 80, [6-(3-cyclopropyl-1,2,4-triazol-1-yl)-2-azaspiro[3.3]heptan-2-yl]-[7-[[5-(trifluoromethyl)isoxazol-3-yl]methyl]-2,7-diazaspiro[3.5]nonan-2-yl]methanone]
IC50: 8.61 nM

Cn1cnc(CN2CC3(C2)CN(C(=O)N2CC4(CC(n5cnc(C6CC6)n5)C4)C2)C3)c1 [Example 305, [6-(3-cyclopropyl-1,2,4-triazol-1-yl)-2-azaspiro[3.3]heptan-2-yl]-[6-[(1-methylimidazol-4-yl)methyl]-2,6-diazaspiro[3.3]heptan-2-yl]methanone]
IC50: 2860 nM

O=C(N1CC2(CC(n3cnc(C(F)(F)F)n3)C2)C1)N1CC2(CN(Cc3ccn(CC(F)(F)F)n3)C2)C1 [Example 99, [6-[[1-(2,2,2-trifluoroethyl)pyrazol-3-yl]methyl]-2,6-diazaspiro[3.3]heptan-2-yl]-[6-[3-(trifluoromethyl)-1,2,4-triazol-1-yl]-2-azaspiro[3.3]heptan-2-yl]methanone]
IC50: 386 nM

O=C(N1CC2(CC(n3cnc(C(F)F)n3)C2)C1)N1CC2(CN(Cc3cn[nH]c3C(F)(F)F)C2)C1 [Example 310, [6-[3-(difluoromethyl)-1,2,4-triazol-1-yl]-2-azaspiro[3.3]heptan-2-yl]-[6-[[5-(trifluoromethyl)-1H-pyrazol-4-yl]methyl]-2,6-diazaspiro[3.3]heptan-2-yl]methanone]
IC50: 344 nM

O=C(N1CC2(CC(Cc3cc(C4CC4)n[nH]3)C2)C1)N1CC2(CC(n3cnc(C(F)(F)F)n3)C2)C1 [Example 123, [6-[(3-cyclopropyl-1H-pyrazol-5-yl)methyl]-2-azaspiro[3.3]heptan-2-yl]-[6-[3-(trifluoromethyl)-1,2,4-triazol-1-yl]-2-azaspiro[3.3]heptan-2-yl]methanone]
IC50: 0.34 nM

O=C(N1CC2(CC(n3cnc(C4CC4)n3)C2)C1)N1CC2(CN(Cc3ccn(CCC(F)(F)F)n3)C2)C1 [Example 321, [6-(3-cyclopropyl-1,2,4-triazol-1-yl)-2-azaspiro[3.3]heptan-2-yl]-[6-[[1-(3,3,3-trifluoropropyl)pyrazol-3-yl]methyl]-2,6-diazaspiro[3.3]heptan-2-yl]methanone]
IC50: 49.1 nM

O=C(N1CC2(CC(n3cnc(C(F)(F)F)n3)C2)C1)N1CC2(CN(Cc3nc(CC4CC4)no3)C2)C1 [Example 264, [6-[[3-(cyclopropylmethyl)-1,2,4-oxadiazol-5-yl]methyl]-2,6-diazaspiro[3.3]heptan-2-yl]-[6-[3-(trifluoromethyl)-1,2,4-triazol-1-yl]-2-azaspiro[3.3]heptan-2-yl]methanone]
IC50: 76.3 nM

O=C(N1CC2(CC(n3cnc(C(F)(F)F)n3)C2)C1)N1CC2(CN(Cc3ccnn3CC(F)(F)F)C2)C1 [Example 222]
IC50: 205 nM

O=C(N1CC2(CC(Cn3cnc(C(F)(F)F)c3)C2)C1)N1CC2(CC(n3cnc(C4(O)CC4)n3)C2)C1 [Example 41, [6-[3-(1-hydroxycyclopropyl)-1,2,4-triazol-1-yl]-2-azaspiro[3.3]heptan-2-yl]-[6-[[4-(trifluoromethyl)imidazol-1-yl]methyl]-2-azaspiro[3.3]heptan-2-yl]methanone]
IC50: 93.7 nM
